Several values for one entry are separate records, joined by “and”; a condition that tells them apart may be missing. Identical values can stand only once. Counter-ions that a name gives are not always drawn.
B1: lecanemab (antibody, chains of the INN, looked up, V domains shown)
VH: EVQLVESGGGLVQPGGSLRLSCSASGFTFSSFGMHWVRQAPGKGLEWVAYISSGSSTIYYGDTVKGRFTISRDNAKNSLFLQMSSLRAEDTAVYYCAREGGYYYGRSYYTMDYWGQGTTVTVSS
VL: DVVMTQSPLSLPVTPGAPASISCRSSQSIVHSNGNTYLEWYLQKPGQSPKLLIYKVSNRFSGVPDRFSGSGSGTDFTLRISRVEAEDVGIYYCFQGSHVPPTFGPGTKLEIK

Experiments:
[1] = tested on: RAW264.7 macrophages; assay: Anti-nitric oxide productions in lipopolysaccharide-treated RAW264.7 macrophages (Griess); format: cell-based; conditions: 2.5 µM, 24 h pre-treatment, then LPS 500 ng/ml 24 h
Protocol: (§1) The 5 × 10^4 macrophages/well were seeded in the 96-well plate and cultured for 24 h at 37 °C under the humidified atmosphere and 5% CO2. The cells were pre-treated with hispolon (No.1, 2.5, 5, 10, and 20 µM), No.2, No.3, No.4, and No.5 (5, 10, and 20 µM), and No.6 and No.7 (5, 10, 20, and 40 µM) for 24 h. The LPS (500 ng/ml) was then added to the pre-treated RAW264.7 macrophages for another 24 h for nitric oxide productions. For nitric oxide productions in LPS-treated RAW264.7 macrophages, the culture supernatant (100 µl) was mixed with 100 µl of Griess reagent at room temperature for 30 min. The absorbance at 550 nm was measured and expressed as relative nitric oxide productions (the control was recognized as 100%). […] The sample pretreated-RAW264.7 cells were stained with MTT solution (500 µg/mL), which the formazan was dissolved by 200 µL DMSO, and the absorbance at 570 nm was measured, and was expressed relative to the blank (%).

[2] = target: T1, recombinant human AChE (Homo sapiens, UniProt P22303); assay: biochemical; conditions: pH 7.5, tested at 125 to 1000 µM, read-out: AChE inhibitory activity IC50
T1 construct: purchased R&D Systems Inc. (Minneapolis, MN)
Protocol: The AChE substrates of acetylthiocholine iodide was added for another 15 min, and the DTNB coupling reagents was added and the mixture was recorded at 405 nm for 10 min. The DMSO instead of sample solution was used as the blank. AChE inhibition (%) was calculated by [(A405blank-A405sample)/(A405blank)] ×100%.

[3] = DPPH radical scavenging activity; format: biochemical; conditions: 100 µM DPPH in methanol, 20 min, A517nm; IC50 from linear equation of 20, 50 and 100 µM; read-out: IC50 of DPPH radical scavenging activities
Protocol: The 60 µL of different concentrations of samples (10, 20, 50, 100, 150, and 200 µM diluted with DMSO) were added into a 96-well plate, and then 140 µl of 100 µM DPPH in methanol was added under light protection for 20 min. The changes of absorbance at A517nm were measured, and DMSO was used instead of a sample solution in the control group. The scavenging activity of the DPPH radical (%) was calculated with the following equation: (Control-sample)/control ×100%.

[4] = tested on: scopolamine-induced ICR mice; assay: Passive avoidance test in scopolamine-induced cognitive dysfunction ICR mice; format: in vivo; conditions: scopolamine 1 mg/kg i.p., P < 0.05
Description: The 5-week-old (N = 30) male ICR mice were purchased from the Laboratory Animal Center in College of Medicine, National Taiwan University, and were housed in wire-bottomed stainless-steel cages and had free access to normal feeds (Prolab^Ⓡ RMH2500, MO) and water, which these cages were placed in an environmental controlled space under a 12-h light/dark cycle. After at least one-week acclimation, the mice were randomly divided into six groups, including the blank, the control, the positive control (donepezil-intervened), and the sample pre-treated groups (No.1, No.6, and No.7 groups). […] For mice in the blank, the control, and the positive control, mice were orally received the same volume of distilled water once daily for 10 days in the parallel experiments. In the second stage of animal experiments during day 11 to day 15, mice in the blank, the control, and the sample groups were treated as reported in the first stage, and mice in the positive control group were treated with donepezil (5 mg/kg) orally once a day by gavage feeding, and 30 min later, mice in the control, sample groups, and positive control were injected intraperitoneally with scopolamine (1 mg/kg, dissolved in PBS), and mice in the blank were injected with the same volume of PBS. At day 13 to day 15, after being injected with scopolamine or the same volume of PBS for 30 min, mice in each group were evaluated learning behaviours by the passive avoidance test. The passive avoidance apparatus, a computerized chamber (PACS-30, Columbus Instruments Inc., Columbus, OH) separated by a sliding guillotine door, is composed of a LED light box and a dark box. At the first day of the acquisition trial (day 13), the guillotine door was opened and each mouse was placed in the LED light box. In case the mouse entered the dark box, the automatic and computerized sliding guillotine door was closed, the entered mouse in the dark box received an electric foot shock (0.3 mA for 3 s) delivered via the wired metal floor and then sent back to the cage. The staying time in the light box (the step-through latency, sec) was recorded. The protocol in the second day (day 14) was the same as the first day. If the mouse stayed in the light box longer than 300 s, and the mouse was expelled into light box and received the same electric foot shocks. At the third day (day 15) of the retention trial, each mouse was placed again in the light box, and the staying time in the light box was recorded. The maximum time was 300 s.

[5] = tested on: PC12 cells; assay: Neurite outgrowths in PC12 pheochromocytoma cells; format: cell-based, rat; conditions: 3-day treatment, blank 3.62 ± 1.62 μm
Protocol: The PC12 cells (5 × 10^3/well) were seeded in poly-L-lysine coated 96-well plate and cultured in RPMI-640 medium supplemented with 10% horse serum, 5% FBS, 100 U/ml penicillin and 100 mg/l streptomycin for 24 h at 37 °C under the humidified atmosphere and 5% CO2. […] The DMSO was used instead of the sample solution as the blank. After an interval of 3 days, the cell morphologies were photographed using an inverted microscope (200-fold magnifications, ECLIPSE TS100, Nikon Instruments Inc., Tokyo, Japan).

[6] = target: T2, Aβ1-42 peptide (Homo sapiens, UniProt P05067); assay: Anti-Aβ1-42 peptide aggregation, thioflavin T binding assay; format: biochemical; conditions: 10 µM Aβ1-42, 10 µM ThT, 37 °C, 24 h; read-out: IC50 of anti-Aβ1-42 peptide aggregations
T2 construct: The preparation of Aβ1–42 peptide stock solution was following the previous report; purchased Sigma Chemical Co. (St. Louis, MO)
Protocol: The DMSO was used instead of the sample solution as the control. […] The inhibition against Aβ aggregation (%) was calculated as [(Econtrol,24−h-Econtrol,0−h)- (Esample,24−h-Esample,0−h)/(Econtrol,24 h-Econtrol,0−h)] ×100%.

[7] = tested on: SH-SY5Y neuroblastoma cells; assay: Neuroprotective activity in methylglyoxal-treated SH-SY5Y neuronal cells (MTT, morphology); format: cell-based; conditions: for cell viabilities of methylglyoxal-treated SH-SY5Y cells compared to the control: 24 h pre-treatment, then 500 µM methylglyoxal 24 h, MTT; for morphologies of methylglyoxal-treated SH-SY5Y cells: 10 µM, 500 µM methylglyoxal, photographs, 200-fold
Protocol: The SH-SY5Y cells (1 × 10^4 cells/well) were seeded onto a 96-well microplate and cultured in a DMEM/F-12 medium containing 10% FBS for 24 h at 37 °C under a humidified atmosphere and 5% CO2. The cultural medium was removed, and the different concentrations of hispolon (No.1), No.6, and No.7 or 0.1% DMSO (the control and the blank) were added and incubated at 37 °C in a humidified atmosphere with 5% CO2 for 24 h. The treated medium was removed, washed with PBS, and 500 µM MGO in PBS were added to the medium for another 24 h culture. The equal aliquot of PBS was added in the blank.

[8] = tested on: RAW264.7 macrophages; assay: Cell viability of RAW264.7 macrophages (MTT)
Protocol: as §1

[9] = tested on: soluble Aβ protofibrils; conditions: intravenously every 2 weeks, 10 mg/kg of body weight, 18 months; ref van Dyck et al. [2023]; cited from earlier work
[10] = 40 mg/kg orally once daily, 10-day pre-treatment and days 11-15

T1 sequence (P22303 32-614): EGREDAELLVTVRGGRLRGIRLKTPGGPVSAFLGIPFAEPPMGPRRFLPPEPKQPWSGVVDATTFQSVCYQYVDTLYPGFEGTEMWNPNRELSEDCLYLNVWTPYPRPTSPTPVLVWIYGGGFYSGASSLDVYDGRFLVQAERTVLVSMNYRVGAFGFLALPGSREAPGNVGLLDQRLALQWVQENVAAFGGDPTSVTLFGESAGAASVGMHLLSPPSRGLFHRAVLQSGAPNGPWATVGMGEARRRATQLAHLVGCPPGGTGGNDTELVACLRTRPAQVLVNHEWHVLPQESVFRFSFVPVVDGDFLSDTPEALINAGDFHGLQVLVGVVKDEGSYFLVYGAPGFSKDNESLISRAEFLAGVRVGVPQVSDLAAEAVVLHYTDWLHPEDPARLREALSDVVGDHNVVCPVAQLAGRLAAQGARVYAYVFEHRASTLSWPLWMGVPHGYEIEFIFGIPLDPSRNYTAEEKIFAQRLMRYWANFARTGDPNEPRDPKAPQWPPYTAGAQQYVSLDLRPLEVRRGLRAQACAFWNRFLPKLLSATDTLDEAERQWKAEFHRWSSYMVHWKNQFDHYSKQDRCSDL
T2 sequence (P05067 672-713): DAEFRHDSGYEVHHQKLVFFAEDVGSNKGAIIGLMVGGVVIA

Row | Molecule | IC50 [2] [µM] | IC50 [3] [µM] | step-through latency in the retention trial (day 15) compared to the control [4, 10] | average neurite lengths of PC12 cells ([5]; 1 µM) [μm] | average neurite lengths of PC12 cells ([5]; 2 µM) [μm] | IC50 [6] | other results
1 | CC(=O)CC(=O)/C=C/c1ccc(O)c(O)c1 [No.1, Hispolon] | 828 | 32.3 | prolong the staying time in the light box | 8.02 ± 3.14 | 8.49 ± 3.61 | 1.41 µM | relative nitric oxide productions (control = 100%) [1]: 70%; cell viabilities of methylglyoxal-treated SH-SY5Y cells compared to the control ([7]; 5 and 10 µM): no significant difference was found compared to those in the control; cytotoxicity toward RAW264.7 macrophages ([8]; 2.5 µM): no apparent toxicities; cytotoxicity toward RAW264.7 macrophages ([8]; 5, 10 and 20 µM): showed cytotoxicities toward RAW264.7 macrophages
2 | COc1c(O)ccc(/C=C/C(=O)CC(C)=O)c1O [No.7, 2-hydroxy hispolon monomethyl ether] | > 1000 | 37.3 | prolong the staying time in the light box | 5.40 ± 1.96 | 8.05 ± 4.69 | 0.95 µM and 0.953 µM | morphologies of methylglyoxal-treated SH-SY5Y cells [7]: recover parts of methylglyoxal-damaged neuritic lengths and restore pyramidal shapes; cell viabilities of methylglyoxal-treated SH-SY5Y cells compared to the control ([7]; 1, 2, 5 and 10 µM): had significant differences compared to those in the control
3 | COc1cc(/C=C/C(=O)CC(C)=O)cc(OC)c1OC [No.5, 5-methoxyhispolon dimethyl ether] | > 1000 | > 100 | – | – | – | > 20 µM | –
4 | COc1cc2c(cc1OC)C(=O)C(CC1CCN(Cc3ccccc3)CC1)C2 (centres unmarked) [donepezil, donepezil hydrochloride, reference compound] | – | – | – | – | – | – | step-through latency in the retention trial (day 15) compared to the control ([4]; 5 mg/kg orally once a day, days 11-15, positive control): prolong the staying time in the light box
5 | COc1cc(/C=C/C(=O)CC(C)=O)cc(O)c1O [No.3, 5-methoxyhispolon] | > 1000 | 21 | – | – | – | 0.35 µM and 0.354 µM | –
6 | NGF | – | – | – | – | – | – | average neurite lengths of PC12 cells ([5]; 100 ng/ml, positive control): 9.18 ± 4.87 μm
7 | CC(=O)CC(=O)/C=C/c1cc(O)c(O)c(O)c1 [No.2, 5-hydroxy hispolon] | > 1000 | 28.3 | – | – | – | 0.34 µM and 0.335 µM | –
8 | COc1cc(/C=C/C(=O)CC(C)=O)cc(OC)c1O [No.4, 5-methoxyhispolon monomethyl ether] | > 1000 | 79.4 | – | – | – | 12.4 µM | –
9 | CC(=O)CC(=O)/C=C/c1ccc(O)c(O)c1O [No.6, 2-hydroxy hispolon] | 286 | 38.2 | prolong the staying time in the light box | 8.50 ± 3.48 | 7.01 ± 3.11 | 1.03 µM | morphologies of methylglyoxal-treated SH-SY5Y cells [7]: recover parts of methylglyoxal-damaged neuritic lengths and restore pyramidal shapes; cell viabilities of methylglyoxal-treated SH-SY5Y cells compared to the control ([7]; 1, 2, 5 and 10 µM): had significant differences compared to those in the control
10 | B1 | – | – | – | – | – | – | less cognitive decline in CDR-SB change between baseline and last visit compared to placebo [9]: 27%
